Source: patent US11034685B2, “Aminopyridine derivatives as TAM family kinase inhibitors” (SignalChem Lifesciences Corporation, priority 2013, dated 2021)

Columns and labels:
Type in all cases: biochemical
[1] = molecular target: T1, Recombinant human Tyro3 (455-end) (Homo sapiens, UniProt Q06418); assay: Kinase enzymatic activity assay ([33P]-ATP phosphate transfer), Tyro3; conditions: inhibitory activity on Tyro3; class symbols
T1 construct: GST (N); made in house; host or cells: Sf9 insect cells (baculovirus)
T1 sequence (Q06418 455-890 limits assumed): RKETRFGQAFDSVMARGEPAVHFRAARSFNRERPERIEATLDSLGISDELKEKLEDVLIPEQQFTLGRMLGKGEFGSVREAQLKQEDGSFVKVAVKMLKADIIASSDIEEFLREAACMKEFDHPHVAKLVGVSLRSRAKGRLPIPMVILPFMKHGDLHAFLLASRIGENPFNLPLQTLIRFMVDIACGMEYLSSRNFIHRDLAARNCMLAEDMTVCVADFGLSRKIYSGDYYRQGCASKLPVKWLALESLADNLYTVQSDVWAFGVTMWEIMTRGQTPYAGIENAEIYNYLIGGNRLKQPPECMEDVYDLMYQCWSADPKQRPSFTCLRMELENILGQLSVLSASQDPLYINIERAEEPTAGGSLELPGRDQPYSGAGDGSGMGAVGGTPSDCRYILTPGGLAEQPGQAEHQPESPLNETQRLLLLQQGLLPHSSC
Procedure: (§1) Preparation of Active Recombinant Kinase Proteins:
(§2) Recombinant human Tyro3 (455-end, the gene accession number NM_006293), human Axl (473-end, the gene accession number NM_021913) and human Mer (578-872, the gene accession number NM_006343) were independently expressed by baculovirus in Sf9 insect cells using an N-terminal GST tag. The recombinant proteins were stored at −70° C. in a medium containing 50 mM Tris-HCl, pH 7.5, 150 mM NaCl, 10 mM glutathione, 0.1 mM EDTA, 0.25 mM DTT, 0.1 mM PMSF and 25% glycerol. The recombinant proteins were aliquoted into smaller quantities after centrifugation to avoid repeated handling and multiple freeze/thaw cycles for the most favorable performance.
(§3) Preparation of Assay Reagents:
(§4) Kinase Assay Buffer: This buffer solution consisted of the following components: 25 mM MOPS, pH 7.2, 12.5 mM β-glycerol-phosphate, 25 mM MgCl2, 5 mM EGTA, 2 mM EDTA and DTT 0.25 mM which was added prior to use.
(§5) Kinase Dilution Buffer: Kinase Assay Buffer was diluted at a 1:4 ratio (5× dilution) with distilled water.
(§6) [^33P]-ATP assay cocktail: In a designated radioactive working area, a 250 μM [^33P]-ATP assay cocktail was prepared by the addition of the following components: 150 μL of 10 mM ATP stock solution, 100 μL [^33P]-ATP (1 mci/100 μL), 5.75 mL of kinase assay buffer. This solution was stored in 1 mL aliquots at −20 OC.
(§7) ATP stock solution (10 mM): The ATP stock solution was prepared by dissolving 55 mg of ATP in 10 mL of kinase assay buffer. It was stored in 200 μL aliquots at −20° C.
(§8) Active Kinase Stock Solution: The active recombinant kinase protein (0.1 μg/μL) was diluted with Kinase Dilution Buffer and the activity was assayed using a serial dilution method. The specific activity is expressed in nmoL/min/mg.
(§9) Substrates: poly(4:1 glu:tyr) is the substrate used for each kinase Tyro3, Axl and Mer: The peptide substrate was dissolved in water to give the final concentration of 1 mg/mL.
(§10) Test compound solution: Test compound was dissolved in DMSO to obtain a 10 mM solution. The assay solution was prepared by adding 5 μL of this solution to […] of 10% DMSO/water to obtain the final concentration of 50 μM.
(§11) The enzymatic activity of all three kinases was determined as follows. Using a 96-well plate, the wells were divided into three categories: Blank wells, […] and Test wells. In Test wells, 5 μL of the test compound solution and 5 μL of the substrate solution were added. In Control wells, 5 μL of 10% DMSO/water and 5 μL of the substrate solution were added. In Blank wells, 10 μL of 10% DMSO/water was added. To each well was added 10 μL of Active Kinase Stock Solution to make up the volume in each well to 20 μL. All test samples, controls and blanks were run in duplicate. The reaction was initiated by the addition of 5 μL of [^33P]-ATP assay cocktail, bringing the final volume up to 25 μL in every well. The mixture was incubated at room temperature for 30 minutes. The reaction was terminated by transferring 10 μL of the reaction mixture into a Millipore MultiScreen filter plate (cat. number MSPHN6B50). The filter plate was washed in a 1% phosphoric acid solution with constant gentle shaking for 15 minutes and this step was repeated once. After the plate was dried in air, scintillation fluid was added to each well and the radioactivity in each well in CPM was counted by a Microbeta TriLux. The corrected CPM in each test well was determined by subtracting the average value of Blank well values. Percentage of inhibition of the kinase enzymatic activity by the test compound was determined using the following formula: […]
(§12) The IC50 values were determined in a similar way following a serial dilution of the test compound. The percentage of inhibition at each concentration was calculated following the above formula. The IC50 was estimated from the curve of % Inhibition against Concentration in log unit using Prism 5, version 5.01.

human Axl (473-end) = molecular target: T2, human Axl (473-end) (Homo sapiens, UniProt P30530); assay: Kinase enzymatic activity assay ([33P]-ATP phosphate transfer), Axl; conditions: inhibitory activity on Axl; class symbols
T2 construct: GST (N); made in house; host or cells: Sf9 insect cells (baculovirus)
T2 sequence (P30530 473-894 limits assumed): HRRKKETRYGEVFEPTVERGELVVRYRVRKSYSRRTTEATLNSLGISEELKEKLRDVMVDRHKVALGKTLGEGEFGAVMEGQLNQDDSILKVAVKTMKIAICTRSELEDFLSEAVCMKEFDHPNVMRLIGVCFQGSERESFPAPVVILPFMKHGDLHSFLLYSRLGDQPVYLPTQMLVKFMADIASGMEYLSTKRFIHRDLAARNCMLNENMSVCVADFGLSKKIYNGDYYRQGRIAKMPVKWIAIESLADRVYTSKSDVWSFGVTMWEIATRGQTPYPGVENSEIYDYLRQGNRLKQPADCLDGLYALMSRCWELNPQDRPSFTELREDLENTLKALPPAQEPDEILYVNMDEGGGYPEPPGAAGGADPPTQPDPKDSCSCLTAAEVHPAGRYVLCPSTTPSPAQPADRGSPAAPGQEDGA
Procedure: as §1, §2, §3, §4, §5, §6, §7, §8, §9, §10, §11, §12

human Mer (578-872) = molecular target: T3, human Mer (578-872) (Homo sapiens, UniProt Q12866); assay: Kinase enzymatic activity assay ([33P]-ATP phosphate transfer), Mer; conditions: inhibitory activity on Mer; class symbols
T3 construct: GST (N); made in house; host or cells: Sf9 insect cells (baculovirus)
T3 sequence (Q12866 578-872): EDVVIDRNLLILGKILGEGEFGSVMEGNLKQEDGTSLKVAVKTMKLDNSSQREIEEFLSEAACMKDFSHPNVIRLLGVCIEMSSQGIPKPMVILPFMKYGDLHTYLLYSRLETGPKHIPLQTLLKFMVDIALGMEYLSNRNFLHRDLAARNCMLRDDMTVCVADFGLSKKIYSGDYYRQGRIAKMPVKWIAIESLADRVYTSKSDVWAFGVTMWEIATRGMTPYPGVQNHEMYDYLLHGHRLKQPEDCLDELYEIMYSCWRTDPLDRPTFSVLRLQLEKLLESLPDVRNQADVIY
Procedure: as §1, §2, §3, §4, §5, §6, §7, §8, §9, §10, §11, §12

| SMILES | IC50 [1] | IC50 (human Axl (473-end)) | IC50 (human Mer (578-872)) |
| --- | --- | --- | --- |
| CC(C)(C)OC(=O)N1CCC(n2cc(-c3cnc(N)c(-c4nnc(-c5cccnc5)o4)c3)cn2)CC1 [tert-butyl 4-(4-(6-amino-5-(5-(pyridin-3-yl)-1,3,4-oxadiazol-2-yl)pyridin-3-yl)-1H-pyrazol-1-yl)piperidine-1-carboxylate] | 1000 to 10000 nM | 500 to 1000 nM | 1000 to 10000 nM |
| CC(C)(C)C(=O)N1CCC(n2cc(-c3cnc(N)c(-c4ncc(-c5cccc(Cl)c5)o4)c3)cn2)CC1 [1-(4-(4-(6-amino-5-(5-(3-chlorophenyl)oxazol-2-yl)pyridin-3-yl)-1H-pyrazol-1-yl)piperidin-1-yl)-2,2-dimethylpropan-1-one] | < 500 nM | < 500 nM | 1000 to 10000 nM |
| Nc1ncc(-c2cnn(C3CCOCC3)c2)cc1-c1cc(-c2ccccc2)on1 [3-(5-phenylisoxazol-3-yl)-5-(1-(tetrahydro-2H-pyran-4-yl)-1H-pyrazol-4-yl)pyridin-2-amine] | < 500 nM | < 500 nM | 1000 to 10000 nM |
| Nc1ncc(-c2cnn(C3CCNCC3)c2)cc1-c1nnc(-c2ccccc2)o1 [3-(5-phenyl-1,3,4-oxadiazol-2-yl)-5-(1-(piperidin-4-yl)-1H-pyrazol-4-yl)pyridin-2-amine] | < 500 nM | < 500 nM | < 500 nM |
| Nc1ncc(-c2cnn(C3CCN(C(=O)C4CC4)CC3)c2)cc1-c1ncc(-c2ccc(Cl)cc2)o1 [(4-(4-(6-amino-5-(5-(4-chlorophenyl)oxazol-2-yl)pyridin-3-yl)-1H-pyrazol-1-yl)piperidin-1-yl)(cyclopropyl)methanone] | < 500 nM | < 500 nM | > 10000 nM |
| CN1CCC(n2cc(-c3cnc(N)c(-c4nc(-c5ccccc5)no4)c3)cn2)CC1 [5-(1-(1-methylpiperidin-4-yl)-1H-pyrazol-4-yl)-3-(3-phenyl-1,2,4-oxadiazol-5-yl)pyridin-2-amine] | < 500 nM | < 500 nM | < 500 nM |
| CC(C)(C)OC(=O)N1CCC(n2cc(-c3cnc(N)c(-c4nnc(Cc5ccccc5)o4)c3)cn2)CC1 [tert-butyl 4-(4-(6-amino-5-(5-benzyl-1,3,4-oxadiazol-2-yl)pyridin-3-yl)-1H-pyrazol-1-yl)piperidine-1-carboxylate] | 1000 to 10000 nM | < 500 nM | 1000 to 10000 nM |
| CCN1CCC(n2cc(-c3cnc(N)c(-c4nnc(-c5c(Cl)cccc5Cl)o4)c3)cn2)CC1 [3-(5-(2,6-dichlorophenyl)-1,3,4-oxadiazol-2-yl)-5-(1-(1-ethylpiperidin-4-yl)-1H-pyrazol-4-yl)pyridin-2-amine] | < 500 nM | < 500 nM | < 500 nM |
| Nc1ncc(-c2cnn(C3CCNCC3)c2)cc1-c1noc(-c2ccccc2)n1 [3-(5-phenyl-1,2,4-oxadiazol-3-yl)-5-(1-(piperidin-4-yl)-1H-pyrazol-4-yl)pyridin-2-amine] | < 500 nM | < 500 nM | < 500 nM |
| Nc1ncc(-c2cnn(C3CCNCC3)c2)cc1-c1nnc(-c2nc(C(F)(F)F)cs2)o1 [5-(1-(piperidin-4-yl)-1H-pyrazol-4-yl)-3-(5-(4-(trifluoromethyl)thiazol-2-yl)-1,3,4-oxadiazol-2-yl)pyridin-2-amine] | < 500 nM | < 500 nM | < 500 nM |
| CN1CCC(n2cc(-c3cnc(N)c(-c4nnc(-c5c(Cl)cccc5Cl)o4)c3)cn2)CC1 [3-(5-(2,6-dichlorophenyl)-1,3,4-oxadiazol-2-yl)-5-(1-(1-methylpiperidin-4-yl)-1H-pyrazol-4-yl)pyridin-2-amine] | < 500 nM | < 500 nM | < 500 nM |
| Nc1ncc(-c2cnn(C3CCOCC3)c2)cc1-c1ccc(-c2ccccc2)o1 [3-(5-phenylfuran-2-yl)-5-(1-(tetrahydro-2H-pyran-4-yl)-1H-pyrazol-4-yl)pyridin-2-amine] | 1000 to 10000 nM | 1000 to 10000 nM | 1000 to 10000 nM |
| CCCCCCCCCCCCN1CCC(n2cc(-c3cnc(N)c(-c4ncc(-c5ccccc5)o4)c3)cn2)CC1 | < 500 nM | < 500 nM | 500 to 1000 nM |
| Nc1ncc(-c2cnn(C3CCNCC3)c2)cc1-c1nnc(Cc2ccccc2)o1 [3-(5-benzyl-1,3,4-oxadiazol-2-yl)-5-(1-(piperidin-4-yl)-1H-pyrazol-4-yl)pyridin-2-amine] | < 500 nM | < 500 nM | < 500 nM |
| Nc1ncc(-c2cn[nH]c2)cc1-c1noc(-c2ccccc2)n1 [3-(5-phenyl-1,2,4-oxadiazol-3-yl)-5-(1H-pyrazol-4-yl)pyridin-2-amine] | < 500 nM | < 500 nM | 1000 to 10000 nM |
| CC(C)(C)OC(=O)N1CCC(n2cc(-c3cnc(N)c(-c4nnc(-c5ccccc5)o4)c3)cn2)CC1 [tert-butyl 4-(4-(6-amino-5-(5-phenyl-1,3,4-oxadiazol-2-yl)pyridin-3-yl)-1H-pyrazol-1-yl)piperidine-1-carboxylate] | 1000 to 10000 nM | 1000 to 10000 nM | 1000 to 10000 nM |
| Nc1ncc(-c2cnn(C3CCCCC3)c2)cc1-c1nc(-c2ccccc2)no1 [5-(1-cyclohexyl-1H-pyrazol-4-yl)-3-(3-phenyl-1,2,4-oxadiazol-5-yl)pyridin-2-amine] | 1000 to 10000 nM | 1000 to 10000 nM | > 10000 nM |
| Nc1ncc(-c2cnn(C3CCNCC3)c2)cc1-c1ncc(-c2cccc(Cl)c2)o1 [3-(5-(3-chlorophenyl)oxazol-2-yl)-5-(1-(piperidin-4-yl)-1H-pyrazol-4-yl)pyridin-2-amine] | < 500 nM | < 500 nM | < 500 nM |
